Earlier results, collected in patent US20040126339A1, “Sunscreen composition and methods for manufacturing and using a sunscreen composition” (priority 2002, published 2004).

Settings: in vivo

Row | Substance | dermal toxicity
1 | Poly(vinylpyrrolidone/1-hexadecene) [PVPH] | no demonstrable dermal toxicity
2 | Poly(vinylpyrrolidone/1-eicosene) [PVPE] | no demonstrable dermal toxicity
